According to ChEMBL document CHEMBL3886587, “Antagonists of prostaglandin EP3 receptor” (2016):

Target: T1, Prostaglandin E2 receptor EP3 subtype (Homo sapiens, UniProt P43115)
T1 sequence (P43115 whole entry): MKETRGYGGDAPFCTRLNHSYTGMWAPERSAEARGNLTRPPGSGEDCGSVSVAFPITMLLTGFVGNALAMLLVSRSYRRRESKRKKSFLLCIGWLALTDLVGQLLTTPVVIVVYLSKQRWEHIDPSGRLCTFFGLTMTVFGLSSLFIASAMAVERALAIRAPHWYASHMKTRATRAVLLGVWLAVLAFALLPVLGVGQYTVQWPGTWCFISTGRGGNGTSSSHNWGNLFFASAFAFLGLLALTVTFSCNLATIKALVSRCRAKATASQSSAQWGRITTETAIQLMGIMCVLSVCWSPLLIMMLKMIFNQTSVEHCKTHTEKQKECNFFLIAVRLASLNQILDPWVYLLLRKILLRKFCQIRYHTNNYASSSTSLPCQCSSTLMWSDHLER
Assay: EP3 Radioligand SPA Binding Assay: Test compounds were half log serially diluted in 100% DMSO (J. T. Baker #922401). 1 uL of each compound was added to appropriate wells of a 384-well plate (Matrix Cat #4322). Unlabeled PGE2 (Tocris Cat #2296) at a final concentration of 1 uM was used to determine non-specific binding. 1 uL of 100% DMSO (J. T. Baker #922401) was used to determine total binding. Millipore EP3 Chem1 membranes (prepared in-house from cell paste derived from the Millipore ChemiSCREEN Human Recombinant EP3 Prostanoid Receptor Calcium-Optimized Stable Cell Line (Millipore Cat #HTS092C. http://www.millipore.com/catalogue/item/hts092c)) were thawed and diluted in binding buffer (50 mM Hepes pH 7.4 (Lonza Cat #17-737), 5 mM MgCl2 (Sigma-M1028), and 0.1% BSA (Sigma A-7409)) to a final concentration of 1 ug/25 uL. 25 uL of diluted membranes were added to prepared compound plates. WGA coated PVT SPA Beads (Perkin Elmer Cat #RPNQ0060) were diluted in binding buffer to a concentration of 4 ug/ul, and 25 uL of the SPA bead mixture was then added to each well for a final assay concentration of 100 ug/well. [3H]-PGE2 (Perkin Elmer Cat #NET428) was diluted in binding buffer to a concentration of […], and 25 uL was added to all wells for a final assay concentration of 1.125 nM. Plates were incubated for 30 minutes at r.t. (approximately 25° C.) with shaking. […]

Ki: 13.9 nM
SMILES: Cn1ncc2c(F)cc(-c3ccc([C@@]4(C)CCCNC4=O)c(=O)[nH]3)cc21
